How the values were obtained:
[1] = test system: NI16 promoter fragment 962 bp; test: GUS florescence assay of promoter::GUS plants after SA application, NI16 962 bp fragment; format: in vivo, Arabidopsis; conditions: 5 mM SA spray
Source text: (§1) A binary promoter::reporter plasmid (pNOV2374) for Arabidopsis transformation was constructed. The regulatory/promoter sequence was fused to the GUS reporter gene (Jefferson et al. (1987) EMBO J 6: 3901-3907) by recombination using […] Technology according to the manufacturer's protocol as described in the Instruction Manual (LifeTechnologies, Rockville, Md.). The construct was then transformed into Agrobacterium tumefaciens strains by electroporation. pNOV2374 is a binary vector with a VS1 origin of replication, a copy of the Agrobacterium virg gene in the backbone, and a Basta® resistance selectable marker cassette between the left and right border sequences of the T-DNA. The Basta® selectable marker cassette comprises the Agrobacterium tumefaciens manopine synthase promoter (AtMas) (Barker et al., Plant Mol. Biol. 2, 335-350 (1983)) operably linked to the gene encoding Basta® resistance (i.e., the “BAR” gene, phosphinothricin acetyl transferase) (White et al., Nucl Acids Res 18: 1062 (1990)) and the 35S terminator. The AtMas promoter, the BAR coding sequence, and the 35S terminator are located at nt 4211 to nt 4679, nt 4680 to nt 5228, and nt 5263 to nt 5488, respectively, of pNOV2374. The vector contains […] recombination components, which were introduced into the binary vector backbone by ligating a blunt-ended cassette containing attR sites, ccdB, and a cholramphenicol resistance marker using the […] Vector Conversion System (LifeTechnologies, Rockville, Md.). The […] cassette was located between nt 126 and 1818 of pNOV2374. The promoter cassettes were inserted through an LR recombination reaction whereby the DNA sequence of pNOV2374 between nt 126 and nt 1818 were removed and replaced with the promoter of interest flanked by att sequences. […] The GIG gene (SEQ ID NO:29) contains the ST-LS1 intron from Solanum tuberosum at nt 385 to nt 576 of GUS (obtained from Dr. Stanton […], Purdue University, and described in Narasimhulu, et al. (1996) Plant Cell 8: 873-886.). […] The treatment was applied as a fine mist to the leaves. […] For quantitative analysis of promoter activity following induction treatments or in various Arabidopsis tissues and organs, GUS expression is measured florometrically. Tissue samples were harvested and ground in ice cold GUS extraction buffer (50 mM Na2HPO4 pH 7.0, 5 mM DTT, 1 mM Na2EDTA, 0.1% TritonX100, 0.1% sarcosyl). Ground samples were spun in a microfuge at 10,000 rpm for 15 minutes at 4° C. Following centrifugation, the supernatant was removed for the GUS assay and for a protein concentration determination. To measure GUS activity, the plant extract was assayed in GUS assay buffer (50 mM Na2HPO4 pH 7.0, 5 mM DTT, 1 mM Na2EDTA, 0.1% TritonX100, 0.1% sarcosyl, 1 mM 4-Methylumbelliferyl-beta-D-glucuronic acid dihydrate (MUG)), pre-warmed to 37° C. Reactions were incubated, and 100 uL aliquots were removed at 10 minute intervals over 30 minutes to stop the reaction by adding the 100 uL aliquots to tubes containing 900 uL of 2% Na2CO3. The stopped reactions were then read on a Tecan Spectroflourometer at 365 nm excitation and 455 emission wavelengths. Protein concentrations were determined using the BCA assay following the manufacturer's protocol. GUS activity is expressed as pmol MU/mg protein/min.

[2] = test system: NI16 promoter fragment 274 bp; test: GUS florescence assay of promoter::GUS plants after SA application, NI16 274 bp fragment; format: in vivo, Arabidopsis; conditions: 5 mM SA spray
Source text: as §1

O=C(O)c1ccccc1O [SA, salicylic acid]
GUS Activity Induced by SA ([1]; 2 h): 86.8 pmol/mg protein/min
GUS activity Fold-change relative to T0 (uninduced) ([1]; 2 h): 2.2 fold
GUS Activity Induced by SA ([1]; 4 h): 260.8 pmol/mg protein/min
GUS activity Fold-change relative to T0 (uninduced) ([1]; 4 h): 6.6 fold
GUS Activity Induced by SA ([1]; 8 h): 467.7 pmol/mg protein/min
GUS Activity Induced by SA ([1]; 24 h): 1457.5 pmol/mg protein/min
GUS activity Fold-change relative to T0 (uninduced) ([1]; 24 h): 36.7 fold
GUS Activity Induced by SA ([2]; 2 h): 27.5 pmol/mg protein/min
GUS activity Fold-change relative to T0 (uninduced) ([2]; 2 h): 1.4 fold
GUS Activity Induced by SA ([2]; 4 h): 58.7 pmol/mg protein/min
GUS activity Fold-change relative to T0 (uninduced) ([2]; 4 h): 3.0 fold
GUS Activity Induced by SA ([2]; 8 h): 150.8 pmol/mg protein/min
GUS activity Fold-change relative to T0 (uninduced) ([2]; 8 h): 7.8 fold
GUS Activity Induced by SA ([2]; 24 h): 230.3 pmol/mg protein/min

From US7199286B2, “Plant-derived novel pathogen and SAR-induction chemical induced promoters, and fragments thereof” (Syngenta Participations AG, priority 1999, dated 2007)
